Laboratory results from patent US7651979B2, “Coordination complexes, and methods for preparing by combinatorial methods, assaying and using the same” (priority 2000, dated 2010).

Columns and labels:
BlaM HeLa cells [1] = format: cell-based, human; conditions: for response of independently synthesized compounds on the BlaM HeLa assay: pure compounds made by non-combinatorial means; for ratio of green to blue fluorescence with increasing concentration: increasing concentrations, FIG. 7, twenty-eight hours
Description: Another example of a subject assay is termed the CCF2/AM assay. The CCF2/AM dye is an effective assay for the presence of β-lactamase, and thus may be used as a sensor for its transcription. See, for example, U.S. Pat. No. 5,955,604 and WO 9630540. This screen in based on a cellular response that is relatively unique to cisplatin. […] See Sandman et al., Chem. Bio. 6:541-51 (1999). […] In addition, the rapid inhibition of transcription, which occurs prior to apoptosis, may be evaluated over a short period of time. In the BlaM HeLa cell line used herein, the inhibition of transcription coupled with the half-life of ambient β-lactamase results in a one-day screening protocol.
To screen drug candidates for transcription inhibition activity, genetically modified HeLa cells developed by Aurora Biosciences were exposed to the products from the above parallel reactions. BlaM HeLa cells have been permanently transfected with a vector encoding the 29-kD plasmid encoded TEM-1 β-lactamase from E. coli. This enzyme is the product of the ampicillin resistance gene Amp^r, and is not normally expressed in mammalian cells.
BlaM HeLa cells were grown up from stock provided by Aurora Biosciences using standard cell culture techniques. This cell line was grown in 10 cm plates by using a modified Dulbecco's Modified Eagle Medium supplemented with 10% fetal bovine serum, 2 mM L-glutamine, 1.0 mM sodium pyruvate, and 0.1 mM non-essential amino acids. Bacterial growth was inhibited through intermittent exposure to […], and selection of the BlaM cells was maintained through the weekly administration of 800 μg/mL G418 (geneticin).
For plate reader-based experiments, HeLa cells were distributed into black, clear-bottom, 96-well plates (Corning). Nearly confluent 10 cm plates (60-70%) were trypsinized and distributed (100 μL) into the 96-well plates, and allowed to adhere and grow for approximately 18 h. Cells were then washed with 100 μL PBS and provided with fresh media prior to treatment. After treatment, the cells were exposed to the CCF2/AM dye for one hour, and measured for fluorescence on the fmax plate reader. The cellular response to platinum compounds was determined by taking the ratio of the absolute value of measured fluorescence at 530 nm (green) over the absolute value of measured fluorescence at 460 nm (blue). This response is corrected for the background of the microplate.
Concentration and time-dependent studies were conducted with cisplatin and other pure platinum compounds to determine the response of the cells to platinum chemotherapeutics. For the library screen, cells were exposed to 30 μM of platinum product from the reactions for 28 hours. 72 reactions were screened manually per day, with each compound measured in triplicate. […] After the exposure period the cells were worked up using the CCF2/AM dye protocol, and hits were determined by their response related to that of a cisplatin standard at the same concentration. Initial hits were then rescreened for dose dependent toxicity, over a range from 0 to 75 μM concentrations.

BlaM HeLa cells [2] = assay: Northern blotting of RNA from BlaM HeLa cells; format: cell-based, human; conditions: 30 μM, 12 hours, FIG. 5
Procedure: Two 10 cm plates of BlaM HeLa cells were grown to 60-70% confluence, and one treated with 30 μM cisplatin for twelve hours. After this treatment, RNA was extracted from the cells on each plate using an Ambion kit and quantified by UV-visible spectroscopy. The RNA was electrophoresed on an agarose-formaldehyde gel, transferred to a nylon membrane, and crosslinked with a Stratalinker UV device by using standard procedures. This blot was probed with ^32P labeled BlaM fragment from pcDNA-3 (Aurora Biosciences) and 7S RNA from pUC(Amp), and quantified by a Biorad phosphorimager apparatus.

## CC(C)N.CC(C)N.[Cl-].[Cl-].[Pt+2] [cis-(isopropylamine)2PtCl2]
BlaM HeLa cells [1]
  response of independently synthesized compounds on the BlaM HeLa assay: positive response

## [Cl][Pt]([Cl])([NH]C1CCC1)[NH]C1CCC1 [bis-cyclobutylamine species, cis-(cyclobutylamine)2PtCl2]
BlaM HeLa cells [1]
  response of independently synthesized compounds on the BlaM HeLa assay: positive response

## [NH2][Pt]([Cl])([Cl])[NH]C1CCC1 [ammine-cyclobutylamine complex, cis-ammine(cyclobutylamine)PtCl2]
BlaM HeLa cells [1]
  response of independently synthesized compounds on the BlaM HeLa assay: positive response

## Cc1cccnc1N.N.[Cl][Pt][Cl] [cis-ammine(2-amino-3-picoline)dichloroplatinum(II)]
BlaM HeLa cells [1]
  response of independently synthesized compounds on the BlaM HeLa assay: positive response

## N.N.[Cl][Pt][Cl] [trans-DDP, trans-diamminedichloroplatinum(II)]
BlaM HeLa cells [1]
  ratio of green to blue fluorescence with increasing concentration: no increase
BlaM HeLa cells [1]; time dependence, any of the times measured, FIG. 8
  cell response over time: no cell response

## N.N.[Cl][Pt][Cl] [cisplatin, cis-diamminedichloroplatinum(II)]
BlaM HeLa cells [2]
  transcription of both the BlaM vector and control 7S RNA: decrease in transcription
BlaM HeLa cells [1]; 30 μM, 28 hours, triplicate, response above 0.092 considered a hit
  response (ratio of fluorescence at 530 nm (green) over 460 nm (blue)) in initial screen: 0.092
BlaM HeLa cells [1]
  ratio of green to blue fluorescence with increasing concentration: definite increase
BlaM HeLa cells [1]; time dependence, FIG. 8
  time at which cell response peaked: approximately 20 hours

## O=[N+]([O-])[O-].[Ag+] [silver nitrate]
BlaM HeLa cells [1]; in media, same concentration as cisplatin (~30 μM), FIG. 9
  transcription inhibition response: does not give a transcription inhibition response
